Assay results published in paper PMC4414571, “Peptides of Presenilin-1 Bind the Amyloid Precursor Protein Ectodomain and Offer a Novel and Specific Therapeutic Approach to Reduce ß-Amyloid in Alzheimer’s Disease” (PLoS ONE, 2015).
Entries after “also recorded” stand apart in the source; their conditions may differ. Read-outs that look alike come from different tables or passages of the source. Ends that are not written are not given here.

Legend:
[1] = test system: NICD / γ-secretase in Jurkat cells; test: NICD levels in extracts of Jurkat cells by ELISA (γ-secretase activity); conditions: 24 h, percent control
Procedure: Jurkat cells (Sigma) were cultured in RPMI 1640 medium supplemented with 10% FCS, 2 mM L-glutamine, penicillin and streptomycin at 37°C in the presence of 5% CO2. […] After harvesting the cells, extracts were prepared by sonication in lysis buffer (Cell Signaling Technologies) supplemented with 1mM PMSF and complete protease inhibitor cocktail (Roche). The solubilized extracts were then used in ELISA assays to determine NICD levels, as a measure of γ-secretase activity, using the PathScan Cleaved Notch 1 (Val 1744) sandwich ELISA kit (Cell Signaling Technologies) according to the manufactuer’s protocols.

[2] = target: T1, soluble ectodomain of APP (APPs, APP 695) (Homo sapiens, UniProt P05067); test: Biolayer interferometry, biotinylated peptides on streptavidin biosensors vs purified soluble APP (APPs); assay type: binding; conditions: 30°C, biotinylated peptide on SA biosensors; for koff / kon / Kd: 1:1 model; for Kd: k off/k on, Kinetics Buffer (1X PBS, 0.002% Tween-20, 0.01% BSA)
T1 construct: host or cells: Sf9 insect cells (baculovirus), conditioned medium
T1 sequence (P05067 18-612 isoform P05067-4 limits assumed): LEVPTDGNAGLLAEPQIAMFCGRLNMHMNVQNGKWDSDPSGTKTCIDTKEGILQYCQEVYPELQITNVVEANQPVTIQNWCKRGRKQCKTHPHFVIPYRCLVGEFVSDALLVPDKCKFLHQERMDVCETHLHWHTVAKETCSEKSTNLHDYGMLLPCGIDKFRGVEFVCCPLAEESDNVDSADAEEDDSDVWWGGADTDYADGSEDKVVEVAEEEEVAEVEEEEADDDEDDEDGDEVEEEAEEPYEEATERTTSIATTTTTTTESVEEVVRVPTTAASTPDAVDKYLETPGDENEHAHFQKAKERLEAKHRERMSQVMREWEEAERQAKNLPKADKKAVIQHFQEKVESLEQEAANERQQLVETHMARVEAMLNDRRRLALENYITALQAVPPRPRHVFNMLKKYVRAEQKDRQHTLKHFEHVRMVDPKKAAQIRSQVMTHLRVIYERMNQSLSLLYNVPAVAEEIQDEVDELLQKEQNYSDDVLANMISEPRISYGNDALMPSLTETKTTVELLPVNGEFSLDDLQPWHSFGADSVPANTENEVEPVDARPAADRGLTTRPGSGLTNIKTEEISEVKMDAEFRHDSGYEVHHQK
Procedure: Sf9 cells (ATCC CRL 1711) were grown in TMN-FH complete medium (Pharmingen) in suspension and infected at a multiplicity of infection of 2 with a titred stock of recombinant virus expressing human APP695. Conditioned media and/or cells were harvested 6 days after infection. Cells and debris were removed by centrifugation (at 1000 x g for 15 min).
Recombinant baculoviruses were produced according to published protocols. A fragment containing full-length APP 695 was subcloned into the baculovirus transfer vector pBlueBac3 (Invitrogen). The resulting recombinant vector was co-transfected with baculovirus DNA into sf9 cells. Recombinant APP expression was verified by Western blot hybridization using mouse MAb against human APP (Cat # MAB348, Millipore).
APPs was purified from baculovirus conditioned medium to >95% purity, as assessed by densitometry analysis of Coomassie stained SDS PAGE gels, by Arvys Proteins, Stamford, CT, using the following strategy. The conditioned medium proteins were purified by heparin-affinity chromatography, followed by two gel filtration chromatography steps over HiPrep Sephacryl S300 columns and two steps of anion exchange chromatography on HiTrapQ columns.
The binding affinities of peptides P1, scrambled P1, P4, P5, P7 and P8 for the soluble ectodomain of APP or control IgG were measured by biolayer interferometry on an Octet RED96 System (Pall FortéBio Corp., Menlo Park, CA). This system monitors interference of light reflected from two sources (an internal reflection surface and the liquid/solid interface of a fiber optic sensor) to measure the rate of binding of molecules to the biosensor surface.
Peptides were synthesized and biotinylated at the NH2-terminus by Dr. Michael Freydkin at Biopeptides, Inc., San Diego, CA, and purified to >95% by HPLC. Biotinylated peptides were loaded onto Streptavidin (SA) biosensors (Pall FortéBio Corp.) at empirically determined concentrations. All affinity measurements were carried out in Kinetics Buffer (KB) (1X PBS, 0.002% Tween-20, and 0.01% BSA) at 30°C. Typically, the biosensors were pre-equilibrated in KB for 120s, loaded with a biotinylated peptide at optimal concentrations and times, quenched with 10 μg/ml biocytin in KB for 180s, brought to baseline in KB for 120s and transferred to wells containing purified APPs (0–200 nM). Multiple negative controls were run for each peptide including association buffer only (no APP) or with IgG replacing APP. Binding kinetics were calculated using the FortéBio Data Analysis v7.1 software. The association (k on) and dissociation (k off) rate constants were obtained by fitting the association and dissociation data to a 1:1 model. Binding affinity, KD, was calculated as k off/k on.

[3] = test system: Aβ production in cell cultures; conditions: cells cultured in media containing excess of the FLAG-coupled NH2-terminal domain of PS-1 (residues 1–80), ref [13], cited from earlier work
Source text: In that work we had selected the NH2-t ... || Peptide P1, comprising the first 80 amino acids of PS-1, scrambled P1 and the two large oligopeptides corresponding to the two halves of the human P1 (peptides P2 and P3, Table 1), were first synthesized and tested in vitro for their effect on the production of Aβ40 and 42.

[4] = test system: IMR-32 human neuroblastoma cell-line (endogenous Aβ40 or 42 production); test: Endogenous Aβ40 and 42 production in IMR-32 culture medium by ELISA; assay type: cell-based; conditions: for Effect on Aβ40 and 42 production in vitro (in words): 0–5 μM peptide, 24 h, IMR-32 culture medium, ELISA; for Production of total Aβ and of Aβ 40 and 42 (summary in words): Discussion summary, stated as in vitro and in vivo (mThy1-hAPP Tg mice)
Procedure: A human neuroblastoma cell-line, IMR-32 (ATCC CCL-127) was cultured in MEM Earles medium containing 10% fetal bovine serum, 2 mM L-glutamine in the presence of penicillin and streptomycin. Equal numbers of cells (0.3 x 10^6 per well) were plated on 6-well plates overnight. Peptides (0–5 μM) were added to fresh culture medium (500 μl per well) and left in the incubator for 24 hours, after which the culture medium from each well was removed and stored at -80°C in the presence of 4-(2-Aminoethyl) benzenesulfonyl fluoride hydrochloride (AEBSF) and protease inhibitors. Prior to use, the culture medium was centrifuged in an eppendorf microfuge for 5 min at 4°C, the supernatant diluted with an equal volume of sample diluent buffer (Wako) and analyzed for the presence of Aβ40 or 42 using a commercial ELISA kit (Wako).

[5] = test system: Aβ 1–40 and 1–42 in mThy1-hAPP mouse brains; test: Aβ40- and Aβ42-specific ELISA of neocortex extracts of peptide-treated mThy1-hAPP mice; assay type: in vivo; conditions: vs PBS, 10 μM peptide infusion, two weeks then two weeks rest
Procedure: (§1) These mice express mutated (London V717I and Swedish K670M/N671L) hAPP751 under the control of the neuronal murine (m)Thy-1 promoter. […] The Tg lines were maintained by crossing heterozygous Tg mice with non-Tg wild type C57BL/6 x DBA/2 F1 breeders. All animal studies were carried out according to protocols approved by the Institutional Animal Care and Use Committee of the University of California San Diego.
Age-matched male and female mThy1-hAPP Tg mice at 6 months of age were anesthetized and under sterile conditions, a 26 gauge stainless steel cannula (Alzet Brain Infusion kit 3, Durect Corp) was stereotaxically implanted into the right ventricle using the following coordinates: –1 mm using Bregma as a reference, lateral, 1.0 mm, depth, -3.0 mm, and secured to the cranium using superglue. The cannula was connected via a 5 mm coil of V3 Biolab vinyl tubing to a model 1002 osmotic minipump (Alzet, Durect Corp) surgically placed subcutaneously beneath the shoulder blades and surgically closed. The solutions (each peptide at 10 μM in PBS) were delivered directly into lateral ventricles at a flow rate of 0.25 μl per hour (100 μl total volume) for two weeks. […]
Samples from mouse cortex and hippocampus were homogenized in ice-cold, 6 M guanidine-HCl according to published protocols. Quantification of Aβ 1–40 and 1–42 was carried out by ELISA kits (Invitrogen). […]

[6] = test system: Aβ deposits in mThy1-hAPP transgenic mice; test: Plaque load / Aβ immunolabeling in brain sections of mThy1-hAPP Tg mice after intraventricular peptide infusion; assay type: in vivo, mouse; conditions: 10 μM in PBS, two weeks infusion then two weeks rest, vs PBS controls
Procedure: as §1, with “Diego. […]” for “Diego.”
For analysis of Aβ deposits, blind-coded 40 μm vibratome sections were immunolabeled as previously described with mouse monoclonal antibodies (MAb) against human Aβ (clone 82E1, prepared against Aβ 1–16) followed by incubation with fluorescein isothiocyanate (FITC)-conjugated anti-mouse IgG (Vector Laboratories). Sections were imaged with a laser scanning confocal microscope (MRC1024, BioRad) as described and digital images were analyzed with the NIH Image 1.43 program to determine the percent area occupied by Aβ deposits. Three immunolabeled sections were analyzed per mouse and the average of individual measurements was used to calculate group means. […]

[7] = test system: NICD (γ-secretase activity); test: NICD levels in neocortex of treated mThy1-hAPP mice by Western blot (γ-secretase activity); assay type: in vivo, mouse; conditions: peptide-infused mThy1-hAPP mice vs PBS, n = 5, two weeks after end of treatment
Procedure: Extracts of neocortex of mThy1-hAPP mice treated with P4, P8 or PBS only were electrophoresed on SDS gels and Western blotted with primary rabbit antibodies against NICD (Cat# 07–1232, Millipore) at 4°C overnight, followed by horse-radish peroxidase (HRP)-conjugated goat anti-rabbit IgG (Bio-Rad). The immunoreactive bands were detected by chemiluminescence (Thermo Scientific).
An optimal therapeutic approach to AD would avoid producing serious effects on other biochemically and physiologically important processes, as would occur if the cleavages of any of the other substrates of β- or γ-secretase were affected in the process of reducing the levels of Aβ. An especially well-studied example is the γ-secretase activity of PS-1 that is critically involved in the final enzymatic cleavage of Aβ from APP; it also functions in an essential developmental process that generates NICD from Notch. […] At the same time we analyzed the same tissue samples for their β-secretase (BACE-1) activity and APP expression. Extracts were prepared of the neocortex of Tg mice that had been treated with P4, P8 or PBS, and the levels of NICD were determined by Western blot analysis with a primary rabbit Ab against NICD. […]

CC(C)[C@H](O)C(=O)N[C@@H](C)C(=O)N[C@@H]1C(=O)N(C)CCc2ccccc21 [Semagacestat, reference compound]
NICD levels in Jurkat cells, γ-secretase inhibitor (in words) ([1]; 0–100 nM, n = 2): inhibited in a dose-dependent manner

DEEEDEELTLKYGAK [Peptide P7]
koff ([2]; Kinetics Buffer): 0.00105 s⁻¹ | kon ([2]; Kinetics Buffer): 104000 M⁻¹ s⁻¹ | Kd [2]: 10.1 nM

FLAG-PS-1 (residues1-80): bacterially produced FLAG-PS-1 (residues1-80)
Aβ production (in words) [3]: robust inhibition of Aβ | Aβ production (in words) ([3]; listed as NH2-terminal domain of PS-1 (residues 1–80) coupled to the FLAG protein): markedly inhibited

PEPLSNGRP [Peptide P10, residues 47–55 of PS-1, fragment of P4]
Effect on Aβ40 and 42 production in vitro (in words) [4]: did not give a significant reduction in Aβ in vitro; also recorded: had not shown a reduction of Aβ in vitro | Aβ40/42 in neocortex extracts by ELISA (in words) [5]: gave reductions in Aβ load, but to a lesser extent | Aβ immunolabeling / Aβ load in mouse brain (in words) [6]: less effective but still produced statistically significant reductions in Aβ levels compared to PBS controls in the neocortex

RQVVEQDEEEDEELT [Peptide P6, residues 60–74 of PS-1]
Effect on Aβ40 and 42 production in vitro (in words) [4]: substantial dose-dependent reduction in Aβ40 and 42 | Production of total Aβ and of Aβ 40 and 42 (summary in words) [4]: markedly reducing the production of total Aβ and of Aβ 40 and 42 in vitro and in vivo

RRSLGH [Peptide P9, residues 41–46 of PS-1, fragment of P4]
Effect on Aβ40 and 42 production in vitro (in words) [4]: did not give a significant reduction in Aβ in vitro; also recorded: had not shown a reduction of Aβ in vitro | Aβ40/42 in neocortex extracts by ELISA (in words) [5]: gave reductions in Aβ load, but to a lesser extent | Aβ immunolabeling / Aβ load in mouse brain (in words) [6]: less effective but still produced statistically significant reductions in Aβ levels compared to PBS controls in the neocortex

RRSLGHPEPLSNGRP [Peptide P4]
NICD levels in Jurkat cells, peptides (in words) ([1]; 0–10 μM, 450 nm, n = 2–3): no appreciable change in the levels of NICD | NICD levels in neocortex (in words) [7]: not accompanied by any significant changes in the levels of NICD | koff ([2]; Kinetics Buffer): 0.00134 s⁻¹ | kon ([2]; Kinetics Buffer): 83600 M⁻¹ s⁻¹ | Kd [2]: 16.1 nM

SNGRPQGNSRQVVEQ [Peptide P5, residues 51–65 of PS-1]
Effect on Aβ40 and 42 production in vitro (in words) [4]: no significant effect on Aβ production | Production of total Aβ and of Aβ 40 and 42 (summary in words) [4]: did not reduce Aβ | Binding to purified APPs (in words) ([2]; Kinetics Buffer): no significant binding to APP
